Results taken from ChEMBL document CHEMBL1156680, “3D-QSAR studies of triazafluorenone inhibitors of metabotropic glutamate receptor subtype 1” (Eur J Med Chem, 2008).

These compounds were tested against Metabotropic glutamate receptor 1 (Rattus norvegicus, UniProt P23385) (assay: Inhibition of rat mGluR1). Conditions: read-out: IC50.
Sequence of Metabotropic glutamate receptor 1 (P23385 whole entry): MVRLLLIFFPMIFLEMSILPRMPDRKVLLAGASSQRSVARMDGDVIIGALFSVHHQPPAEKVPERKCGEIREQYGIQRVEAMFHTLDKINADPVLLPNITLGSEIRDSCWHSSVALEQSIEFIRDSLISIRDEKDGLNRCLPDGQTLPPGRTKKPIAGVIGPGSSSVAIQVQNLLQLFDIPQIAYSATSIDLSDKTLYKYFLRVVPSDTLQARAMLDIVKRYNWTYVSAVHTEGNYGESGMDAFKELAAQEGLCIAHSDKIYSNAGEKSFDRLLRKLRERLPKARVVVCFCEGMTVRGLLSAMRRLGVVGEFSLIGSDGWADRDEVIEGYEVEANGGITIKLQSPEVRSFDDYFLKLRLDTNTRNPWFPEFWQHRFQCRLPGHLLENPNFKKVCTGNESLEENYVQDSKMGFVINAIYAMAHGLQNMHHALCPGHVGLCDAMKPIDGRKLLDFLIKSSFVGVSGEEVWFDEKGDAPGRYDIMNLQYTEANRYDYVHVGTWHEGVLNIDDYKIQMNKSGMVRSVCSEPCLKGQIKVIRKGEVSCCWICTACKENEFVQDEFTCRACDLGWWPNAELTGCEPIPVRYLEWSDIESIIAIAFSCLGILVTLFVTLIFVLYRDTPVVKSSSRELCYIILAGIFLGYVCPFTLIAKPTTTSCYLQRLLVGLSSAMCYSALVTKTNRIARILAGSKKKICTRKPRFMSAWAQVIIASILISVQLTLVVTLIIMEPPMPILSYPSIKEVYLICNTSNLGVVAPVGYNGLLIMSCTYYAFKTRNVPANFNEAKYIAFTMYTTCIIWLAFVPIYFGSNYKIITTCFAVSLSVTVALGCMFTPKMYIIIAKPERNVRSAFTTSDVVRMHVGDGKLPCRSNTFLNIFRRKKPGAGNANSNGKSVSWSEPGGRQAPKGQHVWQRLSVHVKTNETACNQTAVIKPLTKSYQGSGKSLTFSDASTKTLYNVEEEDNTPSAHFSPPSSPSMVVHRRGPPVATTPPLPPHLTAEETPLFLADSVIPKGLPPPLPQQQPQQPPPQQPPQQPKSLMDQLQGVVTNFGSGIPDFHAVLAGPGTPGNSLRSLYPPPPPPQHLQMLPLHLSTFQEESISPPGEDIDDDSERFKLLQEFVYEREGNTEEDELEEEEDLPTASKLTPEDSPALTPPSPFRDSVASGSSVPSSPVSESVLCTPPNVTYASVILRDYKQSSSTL

SMILES	IC50 [µM]
CN(C)c1ccnc2sc3c(=O)n(C4CCCCCCC4)cnc3c12	0.013
Cc1ccc(-n2cnc3c(sc4nccc(N(C)C)c43)c2=O)cc1	0.005
CCc1ccc(-n2cnc3c(sc4nccc(N(C)CC)c43)c2=O)cc1	0.037
CCC(CC)n1cnc2c(sc3nccc(N(C)C)c32)c1=O	0.335
CN(C)c1ccnc2sc3c(=O)n(CC4CCCCC4)cnc3c12	0.139
CCc1cccc(-n2cnc3c(sc4nccc(N(C)C)c43)c2=O)c1	0.009
CCc1ccc(-n2cnc3c(sc4nccc(NC5CC5)c43)c2=O)cc1	0.041
CN(C)c1ccnc2sc3c(=O)n(C4CC4)cnc3c12	0.632
CC1CCC(n2cnc3c(sc4nccc(N(C)C)c43)c2=O)CC1 (stereo unspecified)	0.14
CN(C)c1ccnc2sc3c(=O)n(C45CC6CC(CC(C6)C4)C5)cnc3c12	0.076
Cc1ccc(-n2cnc3c(sc4nccc(N(C)C)c43)c2=O)c(C)c1	0.017
CN(C)c1ccnc2sc3c(=O)n(-c4ccc(C(F)(F)F)cc4)cnc3c12	0.032
CN(C)c1ccnc2sc3c(=O)n(-c4ccccc4)cnc3c12	0.02
CN(C)c1ccnc2sc3c(=O)n(C4CCCC4)cnc3c12	0.005
CC1CCCCC1n1cnc2c(sc3nccc(N(C)C)c32)c1=O (stereo unspecified)	0.13
CCc1ccc(-n2c(C)nc3c(sc4nccc(N(C)C)c43)c2=O)cc1	0.044
CN(C)c1ccnc2sc3c(=O)n(-c4ccc(Cl)cc4Cl)cnc3c12	0.045
CN(C)c1ccnc2sc3c(=O)n(C4CCCCCC4)cnc3c12	0.001
CN(C)c1ccnc2sc3c(=O)n(-c4ccc(F)cc4)cnc3c12	0.023
CCc1ccc(-n2cnc3c(sc4nccc(N(C)CCOC)c43)c2=O)cc1	0.071
CCc1ccc(-n2cnc3c(sc4nccc(N5CCC5)c43)c2=O)cc1	0.113
CCc1ccc(-n2c(CC)nc3c(sc4nccc(N(C)C)c43)c2=O)cc1	0.084
CN(C)c1ccnc2sc3c(=O)n(-c4ccc(C(C)(C)C)cc4)cnc3c12	8.5

SMILES	IC50 [µM]
CN(C)c1ccnc2sc3c(=O)n(-c4ccc(Cl)cc4)cnc3c12	0.016
CN(C)c1ccnc2sc3c(=O)n(-c4ccc(Br)cc4)cnc3c12	0.004
CC(C)c1ccc(-n2cnc3c(sc4nccc(N(C)C)c43)c2=O)cc1	0.407
CCc1ccc(-n2cnc3c(sc4nccc(NC)c43)c2=O)cc1	0.098
CCc1ccccc1-n1cnc2c(sc3nccc(N(C)C)c32)c1=O	0.251
CCc1ccc(-n2cnc3c(sc4nccc(NCC(F)(F)F)c43)c2=O)cc1	0.099
CCc1ccc(-n2cnc3c(sc4nccc(N(C)C)c43)c2=O)cc1	0.003
CN(C)c1ccnc2sc3c(=O)n(C4CCC4)cnc3c12	0.167
CN(C)c1ccnc2sc3c(=O)n(N4CCCCCC4)cnc3c12	0.01
CN(C)c1ccnc2sc3c(=O)n(CC4CCCC4)cnc3c12	0.026
CN(C)c1ccnc2sc3c(=O)n(-c4ccc(C5CC5)cc4)cnc3c12	0.087
CCCCc1nc2c(sc3nccc(N(C)C)c32)c(=O)n1-c1ccc(CC)cc1	0.101
CN(C)c1ccnc2sc3c(=O)n(Cc4ccccc4)cnc3c12	0.281
CC1CCCC(n2cnc3c(sc4nccc(N(C)C)c43)c2=O)C1 (stereo unspecified)	0.482
CN(C)c1ccnc2sc3c(=O)n(C4CCCCC4)cnc3c12	0.05
COc1ccc(-n2cnc3c(sc4nccc(N(C)C)c43)c2=O)cn1	0.039
CN(C)c1ccnc2sc3c(=O)n(-c4ccccc4O)cnc3c12	0.05
CCc1ccc(-n2cnc3c(sc4nccc([N+](C)(C)[O-])c43)c2=O)cc1	0.306
CCCc1ccc(-n2cnc3c(sc4nccc(N(C)C)c43)c2=O)cc1	0.18
CCc1ccc(-n2cnc3c(sc4nccc(NCC#N)c43)c2=O)cc1	0.049
CN(C)c1ccnc2sc3c(=O)n(-c4ccc5cc[nH]c5c4)cnc3c12	0.122
C[N+](C)([O-])c1ccnc2sc3c(=O)n(C4CCCCCC4)cnc3c12	0.167

Same assay, conditions: read-out: pIC50 (converted)

SMILES	IC50 [µM]
CCc1ccc(-n2cnc3c(sc4nccc(NCC#N)c43)c2=O)cc1	0.0427
